Experimental data reported in patent US8178506B2, “Oligomeric compounds and compositions for use in modulation of small non-coding RNAs” (Regulus Therapeutics Inc., priority 2003, dated 2012).
In the oligonucleotide strings, read from the 5' end, every base follows the letter of its sugar. An asterisk marks phosphorothioate; unmarked linkages are phosphodiester. Other units and linkages are bracketed, terminal groups are in braces. A string of capitals states the bases alone. e = 2'-O-(2-methoxyethyl) (MOE); [5mC] = 5-methylcytosine

Tests used:
mir-21 miRNA = test: pGL3-mir-21 sensor luciferase assay in HeLa cells; format: cell-based, human
Procedure, shortened: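 HeLa cells were transiently transfected with pGL3-Control carrying a mir-21-complementary site in the luciferase 3′UTR, which endogenous mir-21 silences. 2′-MOE oligomeric compounds were given at 10 or 50 nM, or at 1.9, 5.5, 16.7 and 50 nM for dose response. Luciferase was normalized to pRL-CMV and expressed as percent of the plasmid-only untreated control.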

[1] = system: mir-143 miRNA binding site; test: GFP mir-143 sensor reporter in T-REx-HeLa cells; format: cell-based, human; details: for Mean fluorescence: T-REx-HeLa cells, 24 hours post-transfection
Source text: Reporter systems have been developed herein to assess the ability of miRNA mimics to provoke a gene silencing response and to assess whether antisense oligomeric compounds targeting miRNAs can inhibit gene silencing activity. The T-REx™-HeLa cell line (Invitrogen Corp., Carlsbad, Calif.) was used for either stable or transient transfections with plasmids constitutively expressing miRNAs, pre-miRNAs, pri-miRNAs or mimics thereof, and, in some cases, antisense oligomeric compounds targeting the expressed miRNA were also transfected into the cells. It is understood that other mammalian cells lines can also be used in this reporter system. T-REx™-HeLa cells were routinely cultured in DMEM, high glucose (Invitrogen Corporation, Carlsbad, Calif.), supplemented with 10% fetal bovine serum (Invitrogen Corporation). […] Cells were harvested when they reached 90% confluence, and on the day before transfection with expression or reporter plasmids (described in detail below), the T-REx™-HeLa cells were seeded onto 24-well plates at 50,000 cells/well. The following day, cells were transfected according to standard published procedures with various combinations of plasmids using 2 μg Lipofectamine™ 2000 Reagent (Invitrogen) per μg of plasmid DNA. When transfecting oligomeric compounds, 1-3 μg of Lipofectamine™ 2000 Reagent was used per 100 nM oligomeric compound.
Plasmids used are as follows: The pcDNA3.1©/NT-GFP (Invitrogen) plasmid, containing a CMV promoter controlling expression of a GFP reporter sequence at the N-terminus of the transcription start site was used as a control plasmid. The pcDNA3.1©/NT-GFP-mir-143 sensor plasmid contains (in addition to the elements above) three 22-nucleotide sites encoding the mir-143 miRNA binding site, downstream of the GFP coding sequence and upstream of the polyadenylation signal. The pCR3-pri-mir-143 plasmid (“pri-mir-143”) is a CMV promoter-driven constitutive expression plasmid which expresses the 110-nucleotide mir-143 pri-miRNA sequence (SEQ ID NO: 38), to act as a mir-143 pri-miRNA mimic. The pCR3-pri-mir control (“pri-mir-control”) is a CMV promotor-driven constitutive expression plasmid which is designed to express a similar 110-nucleotide pri-miRNA sequence ([…] CAGC; SEQ ID NO: 862) wherein the mature mir-143 sequence has been replaced with an unrelated sequence and the predicted complementary strand opposite it within the pri-miRNA structure is replaced with a nearly complementary sequence in order to preserve the stem loop as well as the bulge structure of the natural mir-143 pri-miRNA. Additionally, in order to test the effect of an oligomeric compound targeting a miRNA, the T-REx™-HeLa cells were also transfected with the uniform 2′-MOE phosphorothioate (PS) antisense oligomeric compound ISIS Number 327901 (SEQ ID NO: 319), targeted to mir-143 previously described.
Twenty-four hours post-transfection, cells were trypsinized and GFP fluorescence was analyzed by flow cytometry.

[2] = Table 44, pGL3-mir-21 sensor-expressing HeLa cells, 10 nM
[3] = Table 44, pGL3-mir-21 sensor-expressing HeLa cells, 50 nM

| Substance | luciferase expression % UTC (mir-21 miRNA; [2]) [% UTC] | luciferase expression % UTC (mir-21 miRNA; [3]) [% UTC] | luciferase expression % UTC (mir-21 miRNA; Table 50, pGL3-mir-21 sensor-expressing HeLa cells, 1.9 nM, normalized to pRL-CMV) [% UTC] | luciferase expression % UTC (mir-21 miRNA; Table 50, pGL3-mir-21 sensor-expressing HeLa cells, 5.5 nM, normalized to pRL-CMV) [% UTC] | luciferase expression % UTC (mir-21 miRNA; Table 50, pGL3-mir-21 sensor-expressing HeLa cells, 16.7 nM, normalized to pRL-CMV) [% UTC] | luciferase expression % UTC (mir-21 miRNA; Table 50, pGL3-mir-21 sensor-expressing HeLa cells, 50 nM, normalized to pRL-CMV) [% UTC] | recovery of GFP fluorescence ([1]; with 20 nM mir-143 dsRNA, 4-, 20- or 100 nM) | Mean fluorescence ([1]; oligo with GFP mir-143 sensor only) [arbitrary units] | Mean fluorescence ([1]; oligo with pri-mir-143, no GFP plasmid) [arbitrary units] | Mean fluorescence ([1]; oligo with pri-mir-143 and GFP mir-143 sensor) [arbitrary units] |
| --- | --- | --- | --- | --- | --- | --- | --- | --- | --- | --- |
| 327917 (antisense eT*e[5mC]*eA*eA*e[5mC]*eA*eT*e[5mC]*eA*eG*eT*e[5mC]*eT*eG*eA*eT*eA*eA*eG*e[5mC]*eT*eA) [compound 327917] | 1037.6 | 847.5 | 522 | 1293 | 2470 | 4534 |  |  |  |  |
| TGAGCTACAGTGCTTCATCTCA [ISIS 327901] (chemistry not given here) [uniform 2′-MOE PS; targets mir-143] |  |  |  |  |  |  | blocked the inhibitory effect of the mir-143 dsRNA oligomeric compound |  |  |  |
| 327901 (antisense eT*eG*eA*eG*e[5mC]*eT*eA*e[5mC]*eA*eG*eT*eG*e[5mC]*eT*eT*e[5mC]*eA*eT*e[5mC]*eT*e[5mC]*eA) [compound 327901] | 74.2 | 83.1 |  |  |  |  |  | 4.2 | 3.7 | 4.1 |
